Measurements published in US20020192821A1, “Increased functional activity and/or expression of ABC transporters protects against the loss of dopamine neurons associated with Parkinson's disease” (Active Pass Pharmaceuticals, Inc., priority 2001, published 2002).

Tests used:
ABCC5 transporter = ABCC5 transporter (Homo sapiens, UniProt O15440); conditions: hDAT-SK-N-MC cells transfected with ABCC5; DA 50 μM for 24 hours; glipizide 250 μM or probenecid 500 μM added two hours prior to DA; MTT; FIG. 2
ABCG4 transporter = target: T1, ABCG4 transporter (Homo sapiens, UniProt Q9H172); test: Dopamine-induced cytotoxicity (MTT assay) in hDAT cells transiently transfected with ABCG4, in the presence of ABC transporter inhibitors; format: cell-based; conditions: hDAT-SK-N-MC cells transfected with ABCG4, DA 50 μM for 24 hours, glipizide 250 μM or probenecid 500 μM added two hours prior to DA, FIG. 2
T1 construct: expressed in transfected cells; host or cells: hDAT-SK-N-MC (human neuroblastoma SK-N-MC stably expressing hDAT), transient transfection, pCEP4 or pcDNA3.1
T1 sequence (Q9H172 whole entry): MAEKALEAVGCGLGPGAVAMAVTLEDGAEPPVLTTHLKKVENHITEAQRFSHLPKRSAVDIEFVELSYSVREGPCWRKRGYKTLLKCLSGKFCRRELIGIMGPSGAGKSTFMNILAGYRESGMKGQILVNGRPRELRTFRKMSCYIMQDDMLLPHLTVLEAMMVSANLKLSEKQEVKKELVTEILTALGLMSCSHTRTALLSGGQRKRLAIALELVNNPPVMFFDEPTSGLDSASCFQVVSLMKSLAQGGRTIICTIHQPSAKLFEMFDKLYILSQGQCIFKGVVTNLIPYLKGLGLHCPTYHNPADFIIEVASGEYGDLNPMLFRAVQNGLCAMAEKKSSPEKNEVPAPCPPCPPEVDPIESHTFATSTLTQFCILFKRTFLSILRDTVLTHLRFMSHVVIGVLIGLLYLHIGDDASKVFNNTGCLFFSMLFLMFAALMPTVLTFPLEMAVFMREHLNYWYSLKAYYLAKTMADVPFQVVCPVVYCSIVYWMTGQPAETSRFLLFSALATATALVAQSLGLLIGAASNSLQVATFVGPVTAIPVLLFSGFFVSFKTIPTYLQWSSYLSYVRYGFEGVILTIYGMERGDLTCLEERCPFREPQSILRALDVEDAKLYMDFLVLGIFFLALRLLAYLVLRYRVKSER

ABCC5 transporter, sequence (O15440 whole entry): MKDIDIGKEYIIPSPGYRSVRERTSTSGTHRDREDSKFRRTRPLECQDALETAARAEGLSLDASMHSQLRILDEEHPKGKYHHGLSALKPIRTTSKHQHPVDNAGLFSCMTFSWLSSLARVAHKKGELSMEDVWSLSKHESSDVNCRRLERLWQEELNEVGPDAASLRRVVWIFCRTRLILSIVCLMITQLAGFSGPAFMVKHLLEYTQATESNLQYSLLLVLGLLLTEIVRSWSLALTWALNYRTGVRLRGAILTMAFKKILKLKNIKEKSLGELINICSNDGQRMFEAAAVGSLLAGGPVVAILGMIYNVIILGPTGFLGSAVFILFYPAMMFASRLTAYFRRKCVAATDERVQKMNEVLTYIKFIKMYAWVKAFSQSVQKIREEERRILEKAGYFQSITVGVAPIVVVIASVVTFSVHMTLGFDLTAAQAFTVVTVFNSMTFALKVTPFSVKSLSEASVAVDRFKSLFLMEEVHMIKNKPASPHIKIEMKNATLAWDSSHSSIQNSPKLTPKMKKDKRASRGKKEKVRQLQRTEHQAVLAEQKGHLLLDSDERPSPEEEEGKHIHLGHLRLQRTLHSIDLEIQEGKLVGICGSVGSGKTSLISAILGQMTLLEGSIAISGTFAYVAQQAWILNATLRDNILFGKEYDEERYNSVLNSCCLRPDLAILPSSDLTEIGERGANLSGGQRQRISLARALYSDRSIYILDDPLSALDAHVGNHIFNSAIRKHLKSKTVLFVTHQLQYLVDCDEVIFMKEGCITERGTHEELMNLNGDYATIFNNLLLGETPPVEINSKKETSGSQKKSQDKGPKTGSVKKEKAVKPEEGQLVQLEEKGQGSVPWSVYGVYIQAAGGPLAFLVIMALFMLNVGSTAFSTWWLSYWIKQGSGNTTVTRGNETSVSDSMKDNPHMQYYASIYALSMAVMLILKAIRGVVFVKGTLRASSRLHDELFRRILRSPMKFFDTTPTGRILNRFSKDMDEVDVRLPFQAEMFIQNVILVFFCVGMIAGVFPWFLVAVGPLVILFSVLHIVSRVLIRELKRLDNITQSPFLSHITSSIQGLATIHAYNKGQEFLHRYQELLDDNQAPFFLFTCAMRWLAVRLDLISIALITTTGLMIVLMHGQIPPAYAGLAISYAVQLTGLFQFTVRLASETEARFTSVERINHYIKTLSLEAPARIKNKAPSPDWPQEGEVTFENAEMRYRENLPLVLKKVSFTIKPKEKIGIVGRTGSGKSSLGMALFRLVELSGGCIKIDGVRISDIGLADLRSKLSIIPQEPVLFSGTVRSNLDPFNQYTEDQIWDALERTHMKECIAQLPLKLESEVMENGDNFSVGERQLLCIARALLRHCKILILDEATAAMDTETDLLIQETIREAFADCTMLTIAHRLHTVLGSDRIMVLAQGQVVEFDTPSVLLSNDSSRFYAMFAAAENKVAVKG

CCCN(CCC)S(=O)(=O)c1ccc(C(=O)O)cc1 [probenecid]
effect on the protective effect of ABCC5 against dopamine-induced toxicity (ABCC5 transporter): reversed the protective effect
effect on the protective effect of ABCG4 against dopamine-induced toxicity (ABCG4 transporter): reversed the protective effect
